Data reported in US20260217687A1 (NeoPhore Limited, priority 2023, published 2026).

molecular target: T1, recombinant N-terminal MLH1 (residues 15-340) (Homo sapiens, UniProt P40692); assay: Fluorescence Polarisation Assay for MLH1; type: binding; conditions: 100 nM N-terminal MLH1, 5 nM probe compound
T1 construct: recombinant N-terminal MLH1 (residues 15-340)
T1 sequence (P40692 15-340): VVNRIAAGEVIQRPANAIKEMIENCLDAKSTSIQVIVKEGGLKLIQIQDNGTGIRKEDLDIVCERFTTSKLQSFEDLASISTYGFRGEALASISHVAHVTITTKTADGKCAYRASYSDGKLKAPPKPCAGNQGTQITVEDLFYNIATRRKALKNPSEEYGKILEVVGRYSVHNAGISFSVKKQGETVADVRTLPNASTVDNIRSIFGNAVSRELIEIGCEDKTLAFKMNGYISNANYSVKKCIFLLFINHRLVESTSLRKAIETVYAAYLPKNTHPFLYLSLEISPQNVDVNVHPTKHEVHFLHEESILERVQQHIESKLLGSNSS
Procedure, shortened: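 Fluorescence polarisation displacement: 100 nM MLH1 (15-340) preincubated 30 min at room temperature with compound, then 5 nM rhodamine-labelled probe added and read immediately. Buffer 25 mM HEPES pH 7.5, 250 mM NaCl, 10 mM MgCl2, 0.01% Triton X-100, 5 mM DTT; normalised to no-inhibitor and no-enzyme controls.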

Row | Compound | IC50 [nM]
1 | COc1cc2c(c(N[C@@H]3CCOC3)c1)CN(C(=O)c1c(O)cc(Cl)cc1OCc1ccccc1)C2 [Example 10.1, (R)-(2-(Benzyloxy)-4-chloro-6-hydroxyphenyl)(6-methoxy-4-((tetrahydrofuran-3-yl)amino)isoindolin-2-yl)methanone] | 1000 to 10000
2 | O=C(c1c(O)cc(F)cc1OCc1ccccc1)N1Cc2cccc(N[C@@H]3CCOC3)c2C1 [Example 6, (R)-(2-(Benzyloxy)-4-fluoro-6-hydroxyphenyl)(4-((tetrahydrofuran-3-yl)amino)isoindolin-2-yl)methanone] | 1000 to 10000
3 | O=C(c1c(O)cc(C(F)F)cc1OCc1ccccc1)N1CCc2ccccc2C1 [Example 4.35, (2-(Benzyloxy)-4-(difluoromethyl)-6-hydroxyphenyl)(3,4-dihydroisoquinolin-2(1H)-yl)methanone] | 1000 to 10000
4 | N#Cc1cc(O)c(C(=O)N2CCCc3cc(NC4CCOC4)ccc32)c(OCc2ccccc2)c1 (stereo not shown) [Example 27.18, 3-(Benzyloxy)-5-hydroxy-4-(6-((tetrahydrofuran-3-yl)amino)-1,2,3,4-tetrahydroquinoline-1-carbonyl)benzonitrile] | 1000 to 10000
5 | CN(C)CCOc1ccc2c(c1)CCN(C(=O)c1c(O)cc(Cl)cc1OCc1ccccc1)C2 [Example 10.22, (2-(Benzyloxy)-4-chloro-6-hydroxyphenyl)(6-(2-(dimethylamino)ethoxy)-3,4-dihydroisoquinolin-2(1H)-yl)methanone] | 1000 to 10000
6 | N#Cc1cc(O)c(C(=O)N2Cc3cccc(N[C@H]4CCOC4)c3C2)c(OCc2ccccn2)c1 [Example 10.39, (S)-3-Hydroxy-5-(pyridin-2-ylmethoxy)-4-(4-((tetrahydrofuran-3-yl)amino)isoindoline-2-carbonyl)benzonitrile] | 100 to 1000
7 | CN1CC(Nc2cccc3c2CN(C(=O)c2c(O)cc(Cl)cc2OCc2ccccc2)C3)C1 [Example 10.20, (2-(Benzyloxy)-4-chloro-6-hydroxyphenyl)(4-((1-methylazetidin-3-yl)amino)isoindolin-2-yl)methanone] | 100 to 1000
8 | CN1CC(Oc2ccc3c(c2)CN(C(=O)c2c(O)cc(C(F)F)cc2OCc2ccccc2)CC3)C1 [Example 4.69, (2-(Benzyloxy)-4-(difluoromethyl)-6-hydroxyphenyl)(7-((1-methylazetidin-3-yl)oxy)-3,4-dihydroisoquinolin-2(1H)-yl)methanone] | 100 to 1000
9 | CN(C)CCOc1cccc2c1CCN2C(=O)c1c(O)cc(C(F)F)cc1OCc1ccccc1 [Example 27.13, (2-(Benzyloxy)-4-(difluoromethyl)-6-hydroxyphenyl)(4-(2-(dimethylamino)ethoxy)indolin-1-yl)methanone] | 100 to 1000
10 | O=C(c1c(O)cc(C(F)F)cc1OCc1ccc2ccncc2c1)N1CCc2cccc(N[C@H]3CCOC3)c2C1 [Example 28.3, (S)-(4-(Difluoromethyl)-2-hydroxy-6-(isoquinolin-7-ylmethoxy)phenyl)(8-((tetrahydrofuran-3-yl)amino)-3,4-dihydroisoquinolin-2(1H)-yl)methanone] | 100 to 1000
11 | N#Cc1cc(O)c(C(=O)N2Cc3cccc(NC4COC4)c3C2)c(OCc2ccccc2)c1 [Example 10.26, 3-(Benzyloxy)-5-hydroxy-4-(4-(oxetan-3-ylamino)isoindoline-2-carbonyl)benzonitrile] | 100 to 1000
12 | CN1CCN(Cc2ccc3c(c2)CCN(C(=O)c2c(O)cc(C(F)F)cc2OCc2ccccc2)C3)CC1 [Example 4.47, (2-(Benzyloxy)-4-(difluoromethyl)-6-hydroxyphenyl)(6-((4-methylpiperazin-1-yl)methyl)-3,4-dihydroisoquinolin-2(1H)-yl)methanone] | 100 to 1000
13 | Cn1cncc1-c1cc2c(c(N[C@H]3CCOC3)c1)CN(C(=O)c1c(O)cc(C(F)F)cc1OCc1ccccc1)CC2 [Example 4.26, (S)-(2-(Benzyloxy)-4-(difluoromethyl)-6-hydroxyphenyl) (6-(1-methyl-1H-imidazol-5-yl)-8-((tetrahydrofuran-3-yl)amino)-3,4-dihydroisoquinolin-2(1H)-yl)methanone] | 100 to 1000
14 | CN1CC[C@@H](Oc2ccc3c(c2)CN(C(=O)c2c(O)cc(C#N)cc2OCc2ccccc2)C3)C1 [Example 10.30, (R)-3-(Benzyloxy)-5-hydroxy-4-(5-((1-methylpyrrolidin-3-yl)oxy)isoindoline-2-carbonyl)benzonitrile] | 100 to 1000
15 | O=C(c1c(O)cc(C(F)F)cc1OCc1ccccc1)N1CCc2ccc(NC3CCOC3)cc21 (single isomer, unassigned) [Example 27.2a, (S)-(2-(Benzyloxy)-4-(difluoromethyl)-6-hydroxyphenyl)(6-((tetrahydrofuran-3-yl)amino)indolin-1-yl)methanone or (R)-(2-(Benzyloxy)-4-(difluoromethyl)-6-hydroxyphenyl)(6-((tetrahydrofuran-3-yl)amino)indolin-1-yl)methanone] | 100 to 1000
16 | O=C(c1c(O)cc(C(F)(F)F)cc1OCc1ccccc1)N1Cc2cccc(N[C@H]3CCOC3)c2C1 [Example 23, (S)-(2-(Benzyloxy)-6-hydroxy-4-(trifluoromethyl)phenyl) (4-((tetrahydrofuran-3-yl)amino)isoindolin-2-yl) methanone] | 100 to 1000

Other lines, results leading:

Row | IC50 [nM] | Compound
17 | 100 to 1000 | O=C(c1c(O)cc(C(F)F)cc1OCc1ccccc1)N1CCc2cc(Cn3ccnc3)ccc2C1 [Example 4.49, (6-((1H-Imidazol-1-yl)methyl)-3,4-dihydroisoquinolin-2(1H)-yl)(2-(benzyloxy)-4-(difluoromethyl)-6-hydroxyphenyl)methanone]
18 | 100 to 1000 | CC(=O)N1CCC[C@H](Nc2cccc3c2CN(C(=O)c2c(O)cc(C#N)cc2OCc2ccccc2)C3)C1 [Example 10.18, (S)-4-(4-((1-Acetylpiperidin-3-yl)amino)isoindoline-2-carbonyl)-3-(benzyloxy)-5-hydroxybenzonitrile]
19 | 100 to 1000 | N#Cc1cc(O)c(C(=O)N2Cc3cccc(NC4COC(=O)C4)c3C2)c(OCc2ccccc2)c1 (stereo not shown) [Example 10.19, 3-(Benzyloxy)-5-hydroxy-4-(4-((5-oxotetrahydrofuran-3-yl)amino)isoindoline-2-carbonyl)benzonitrile]
20 | 100 to 1000 | CN1CCN(CCOc2ccc3c(c2)CN(C(=O)c2c(O)cc(C(F)F)cc2OCc2ccccc2)C3)CC1 [Example 4.71, (2-(Benzyloxy)-4-(difluoromethyl)-6-hydroxyphenyl) (5-(2-(4-methylpiperazin-1-yl)ethoxy)isoindolin-2-yl) methanone]
21 | 100 to 1000 | O=C(c1c(O)cc(C(F)F)cc1OCc1ccccc1)N1CCc2cc(NC3CCOC3)ccc21 (single isomer, unassigned) [Example 27.5a, (S)-(2-(Benzyloxy)-4-(difluoromethyl)-6-hydroxyphenyl)(5-((tetrahydrofuran-3-yl)amino)indolin-1-yl)methanone or (R)-(2-(Benzyloxy)-4-(difluoromethyl)-6-hydroxyphenyl)(5-((tetrahydrofuran-3-yl)amino)indolin-1-yl)methanone]
22 | 100 to 1000 | CC(=O)N1CC(Nc2cccc3c2CN(C(=O)c2c(O)cc(F)cc2OCc2ccccc2)C3)C1 [Example 10.23, 1-(3-((2-(2-(Benzyloxy)-4-fluoro-6-hydroxybenzoyl)isoindolin-4-yl)amino)azetidin-1-yl)ethan-1-one]
23 | 100 to 1000 | CN1CCC(Oc2ccc3c(c2)CCN(C(=O)c2c(O)cc(C(F)F)cc2OCc2ccccc2)CC3)CC1 [Example 27.7, (2-(Benzyloxy)-4-(difluoromethyl)-6-hydroxyphenyl)(7-((1-methylpiperidin-4-yl)oxy)-1,2,4,5-tetrahydro-3H-benzo[d]azepin-3-yl)methanone]
24 | 100 to 1000 | O=C(c1c(O)cc(C(F)F)cc1OCc1ccccc1)N1Cc2cccc(N[C@@H]3CCOC3)c2C1 [Example 3, (R)-(2-(Benzyloxy)-4-(difluoromethyl)-6-hydroxyphenyl)(4-((tetrahydrofuran-3-yl)amino)isoindolin-2-yl)methanone]
25 | 100 to 1000 | CN(C)CCOc1cc2c(c(N[C@@H]3CCOC3)c1)CN(C(=O)c1c(O)cc(C#N)cc1OCc1ccccc1)CC2 [Example 14, (R)-3-(Benzyloxy)-4-(6-(2-(dimethylamino)ethoxy)-8-((tetrahydrofuran-3-yl)amino)-1,2,3,4-tetrahydroisoquinoline-2-carbonyl)-5-hydroxybenzonitrile]
26 | 100 to 1000 | COc1cc2c(c(N[C@@H]3CCOC3)c1)CN(C(=O)c1c(O)cc(C#N)cc1OCc1ccccc1)C2 [Example 10.13, (R)-3-(Benzyloxy)-5-hydroxy-4-(6-methoxy-4-((tetrahydrofuran-3-yl)amino)isoindoline-2-carbonyl)benzonitrile]
27 | < 100 | O=C(c1c(O)cc(C(F)F)cc1OCc1ccccc1)N1CCc2cc(Cn3ccnc3)cc(N[C@H]3CCOC3)c2C1 [Example 4.22, (S)-(6-((1H-Imidazol-1-yl)methyl)-8-((tetrahydrofuran-3-yl)amino)-3,4-dihydroisoquinolin-2(1H)-yl)(2-(benzyloxy)-4-(difluoromethyl)-6-hydroxyphenyl)methanone]
28 | < 100 | CN(C)CCOc1cc2c(c(N[C@H]3CCOC3)c1)CN(C(=O)c1c(O)cc(C#N)cc1OCc1ccccc1)CC2 [Example 15, (S)-3-(Benzyloxy)-4-(6-(2-(dimethylamino)ethoxy)-8-((tetrahydrofuran-3-yl)amino)-1,2,3,4-tetrahydroisoquinoline-2-carbonyl)-5-hydroxybenzonitrile]
